Holding throughout (design): species or system Fasciola hepatica
The test system of assay [1] is adult F. hepatica. Put plainly: In vitro test on adult F. hepatica (viability scale, effective concentration). Conditions: for minimal effective concentration: Fasciola hepatica, read-out: Effective in vitro concentration. The procedure: Representative compounds of formula (I), formula (II), and formula (III) were tested in vitro against F. hepatica as follows. Adult F. hepatica (fluke) were collected from infected bovine livers obtained from a local abattoir (Basel, Switzerland). The worms were quickly washed with 0.9% (w/v) NaCl and placed in 6 or 12-well plates (Costar). Culture medium in each well contained RPMI 1640 (Gibco) at 37° C., which was supplemented with antibiotics (50 μg/ml streptomycin and 50 IU/ml penicillin; Gibco) and 80 μg/ml of a haemin solution. The haemin solution was prepared as follows: 5 mg haemin was dissolved in 1 ml of 0.1M aqueous solution of NaOH, and 3.95 ml of PBS (pH=7.4) and 0.05 ml of 1M HCl were added to adjust the pH to 7.1-7.4 (Keiser and Morson, 2008). Cultures were kept at 37° C. in an atmosphere of 5% CO2. To monitor the temporal effects of test compounds in vitro, 3 flukes were incubated for 72 h in the presence of 50 or 100 μg/ml of each test compound. At 24, 48, and 72 h, worms were examined using a dissecting microscope. For the adult worms, a viability scale ranging from 4 (normal movements) to 1 (death; no movement observed for two min using a microscope) was used.
Table 1 lists representative compounds of formula (I) of the present invention and their effective in vitro concentrations against F. hepatica. All compounds were tested in vitro on the adult stage of F. hepatica as described above. Each data point refers to at least two independent experiments. For Table 1, R2 is H, R4 is Cl and R5 is H.
Table 2 lists representative compounds of formula (II) of the present invention and their effective in vitro concentrations against F. hepatica. All compounds were tested in vitro on the adult stage of F. hepatica as described above. Each data point refers to at least two independent experiments. For Table 2 compounds, the 2-position of the benzimidazole ring is methylthio, R6 is H and R9 is H.
Table 3 lists representative compounds of formula (III) of the present invention and their effective in vitro concentrations against F. hepatica. All compounds were tested in vitro on the adult stage of F. hepatica as described above. Each data point refers to at least two independent experiments. For Table 3, the 2-position of the benzimidazole ring is trifluoromethylthio, R10 is H and R13 is H.

Assay [2] has as its system adult F. hepatica. The experiment in a line: In vivo test in female Wistar rats harboring adult F. hepatica. Conditions: single oral dose 100 mg/kg, one week after dosing; for Number of living worms Ø = average: control 6.3; for Worm burden reduction %: vs untreated control. The procedure: Additionally, five compounds were tested in vivo in female Wistar rats against an untreated control. Rats were kept in groups of five in type-4 Makrolon cages under environmentally controlled conditions (temperature, 22° C.; humidity, 70%; light/dark cycle, 12/12 h) with free access to water and rodent food. F. hepatica metacercariae (Pacific Northwest wild strain) were purchased from Baldwin Aquatics (Monmouth, Oreg.). After one week of adaptation, each rat was infected by oral gavage with approximately 25 metacercariae.
Three rats harboring adult F. hepatica (>8 weeks postinfection) were used to test each of five compounds. The rats were given a single oral dose of 100 mg/kg with each of test compounds 273, 274, 282, 290 and 303. Untreated rats (n=3) served as controls. Dosing formulations consisted of 300 ul Tween 80:ethanol (1:1) and 2.7 ml water. One week after dosing the animals were euthanized and live worms recovered from excised bile ducts.

Assay [3] concerns F. hepatica resistant to triclabendazole (Oberon isolate of Australia). The experiment in a line: In vitro test against triclabendazole-resistant F. hepatica (Oberon isolate), movement score. Conditions: for Fluke activity score: scale 3 (very active) to 0 (death).
The mark [4] stands for this setting: Table 1, formula (I), adult flukes incubated up to 72 h, at least two independent experiments.

Like-named read-outs stand apart in the source and are kept apart here.

Regarding `FC(F)(F)C(F)(F)C(F)(F)c1nc2cc(Cl)c(Oc3ccc(Cl)cc3Cl)cc2[nH]1` [Compound 273, 5-chloro-6-(2,4-dichlorophenoxy)-2-(heptafluoropropyl)-1H-1,3-benzodiazole], the minimal effective concentration in the assay on adult F. hepatica [1] (72 h) was 5 µg/mL. The “No. of rats cured/No. of rats investigated” value in the assay with adult F. hepatica [2] is listed as 1/2. Also, the “Number of living worms Ø = average” value with adult F. hepatica [2] turned out to be 1.5. Besides, the “Worm burden reduction %” value with adult F. hepatica [2] was 76.2%. For the same compound, the Fluke activity score was found to be 3 in assay [3] (10 μg/ml, 0 h); 0 in assay [3] (10 μg/ml, 24 h); 0 in assay [3] (10 μg/ml, 48 h); 0 in assay [3] (10 μg/ml, 72 h); 3 in assay [3] (20 μg/ml, 0 h); 0 in assay [3] (20 μg/ml, 24 h). In addition, the Fluke activity score came to 0 in assay [3] (20 μg/ml, 48 h) and 0 in assay [3] (20 μg/ml, 72 h). The “Efficacy against triclabendazole-resistant flukes, in words” value in assay [3] (even at 10 μg/ml, compared with #114, #130, #140 and 50 μg/ml triclabendazole/sulfoxide) is listed as “particularly efficacious”.
As for `FC(F)(F)c1ccc(-c2cc3[nH]c(C(F)(F)C(F)(F)C(F)(F)F)nc3cc2Cl)c(C(F)(F)F)c1` [Compound 303, 6-[2,4-bis(trifluoromethyl)phenyl]-5-chloro-2-(heptafluoropropyl)-1H-1,3-benzodiazole], the minimal effective concentration with adult F. hepatica [1] (setting [4]) came out at 20 µg/mL. Moreover, in the assay with adult F. hepatica [2], the “No. of rats cured/No. of rats investigated” value is on record as 1/3, the “Number of living worms Ø = average” value is on record as 1.3 and the “Worm burden reduction %” value came to 79.4%.
Turning to `C[S+]([O-])c1nc2cc(Oc3cccc(Cl)c3Cl)c(Cl)cc2[nH]1` (stereo not shown) [TBZ-SOX, triclabendazole/sulfoxide, reference compound], the Fluke activity score in assay [3] (50 μg/ml, 0 h) was determined as 3; in assay [3] (50 μg/ml, 24 h) it was 3; in assay [3] (50 μg/ml, 48 h), 2.5; in assay [3] (50 μg/ml, 72 h), 2.
For the compound `FC(F)(F)c1ccc(-c2cc3[nH]c(C(F)(F)C(F)(F)C(F)(F)F)nc3cc2Cl)cc1` [Compound 290, 5-chloro-2-(heptafluoropropyl)-6-[4-(trifluoromethyl)phenyl]-1H-1,3-benzodiazole], the minimal effective concentration in the assay with adult F. hepatica [1] (setting [4]) stood at 50 µg/mL. In the assay with adult F. hepatica [2], the “No. of rats cured/No. of rats investigated” value is 1/3, the “Number of living worms Ø = average” value worked out at 3.3 and the “Worm burden reduction %” value worked out at 47.6%.
Take `FC(F)(F)C(F)(F)C(F)(F)c1nc2cc(Cl)c(-c3ccc(Cl)cc3)cc2[nH]1` [Compound 274, 5-chloro-6-(4-chlorophenyl)-2-(heptafluoropropyl)-1H-1,3-benzodiazole]: the minimal effective concentration in the assay on adult F. hepatica [1] (72 h) came out at 5 µg/mL. For the same compound, in the assay on adult F. hepatica [2], the “No. of rats cured/No. of rats investigated” value is on record as 1/3 and the “Number of living worms Ø = average” value was determined as 2.3.
As for `FC(F)(F)c1nc2cc(Cl)c(-c3ccc(Cl)cc3)cc2[nH]1` [Compound 130, 6-chloro-5-(4-chlorophenyl)-2-trifluoromethylbenzimidazole], the minimal effective concentration in the assay with adult F. hepatica [1] (72 h) turned out to be 2.5 µg/mL. Further, the Fluke activity score in assay [3] (20 μg/ml, 0 h) is reported as 3; in assay [3] (20 μg/ml, 24 h), 0.25; in assay [3] (20 μg/ml, 48 h), 0; in assay [3] (20 μg/ml, 72 h), 0.
On to `Fc1ccc(-c2cc3[nH]c(C(F)(F)C(F)(F)C(F)(F)F)nc3cc2Cl)cc1` [Compound 282, 5-chloro-6-(4-fluorophenyl)-2-(heptafluoropropyl)-1H-1,3-benzodiazole], for which, in the assay on adult F. hepatica [1] (72 h), the minimal effective concentration is under 2.5 µg/mL. In addition, in the assay on adult F. hepatica [2], the “No. of rats cured/No. of rats investigated” value is 2/3 and the “Number of living worms Ø = average” value stood at 2.
With `FC(F)(F)C(F)(F)C(F)(F)c1nc2cc(Cl)c(Oc3cccc(Cl)c3Cl)cc2[nH]1` [Compound 140, 6-chloro-5-(2,3-dichlorophenoxy)-2-heptafluoropropylbenzimidazole], the minimal effective concentration with adult F. hepatica [1] (72 h) came out at 5 µg/mL. Also, the Fluke activity score in assay [3] (20 μg/ml, 0 h) is 3; in assay [3] (20 μg/ml, 24 h), 0.5; in assay [3] (20 μg/ml, 48 h) it was 0; in assay [3] (20 μg/ml, 72 h), 0.
`FC(F)(F)Sc1nc2cc(Cl)c(-c3ccc(Cl)cc3)cc2[nH]1` [Compound 102, 6-chloro-5-(4-chlorophenyl)-2-trifluoromethylthiobenzimidazole]: the minimal effective concentration in the assay on adult F. hepatica [1] (72 h) was 5 µg/mL.
Turning to “6-chloro-5-(2-butyl)-cyclopropyl-2-trifluoromethylthiobenzimidazole [Compound 108]”, the “Effective in vitro concentration” value in the assay on adult F. hepatica [1] (Table 3, formula (III), adult flukes incubated up to 72 h, at least two independent experiments) was 10 µg/mL.

Values taken from patent US9695129B2, “Parasiticidal compositions comprising benzimidazole derivatives, methods and uses thereof” (MERIAL INC., priority 2012, dated 2017).
